For four molecules, Ki results are on record in patent publication US12559529B2, “NPY2 receptor agonists” (Boehringer Ingelheim International GmbH, priority 2019, dated 2026).

The structures appear in SMILES notation. *1 amine or outer side, *2 acyl side, *3 side chain or, on linkers, in order; H or OH if unused. Where a SMILES comes first, the peptide text is derived from it. Side-chain parts run from the residue outwards. The star is where a group is joined. C18 diacid = O=C(O)CCCCCCCCCCCCCCCCC(=O)*; γGlu = O=C(O)[C@H](CCC(=O)[*:2])N[*:1]; Isovaleryl = CC(C)CC(=O)*; AEEA = NCCOCCOCC(=O)O

For this test, the target named is T1, Human Neuropeptide Y2 Receptor (Homo sapiens, UniProt P49146).
T1 construct: purchased CHEMICON HTS066M
T1 sequence (P49146 1-381): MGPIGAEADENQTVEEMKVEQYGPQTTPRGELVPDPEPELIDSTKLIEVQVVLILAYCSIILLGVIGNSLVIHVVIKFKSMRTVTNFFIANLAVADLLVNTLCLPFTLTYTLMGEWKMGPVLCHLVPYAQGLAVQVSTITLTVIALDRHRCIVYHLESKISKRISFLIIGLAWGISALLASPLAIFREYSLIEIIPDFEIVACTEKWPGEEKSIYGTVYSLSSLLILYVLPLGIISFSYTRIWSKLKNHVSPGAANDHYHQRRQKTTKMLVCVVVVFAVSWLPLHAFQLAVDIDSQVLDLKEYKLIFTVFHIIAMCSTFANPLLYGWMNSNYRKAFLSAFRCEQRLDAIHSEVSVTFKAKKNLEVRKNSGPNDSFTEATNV
Briefly: Radioligand binding competition assay (RLB). As to conditions: Table 3; human 125I-PYY (1-36) 0.02 nM, Y2 receptor membranes; read-out: Ki. The gist of the method: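 Membranes from cells expressing human Y2 receptor (0.5 μg protein/well) were incubated with radioligand and serially diluted peptides in 50 mM HEPES, 5 mM MgCl2, 1 mM CaCl2, 0.2% ovalbumin, pH 7.4, for 2 h at room temperature with shaking. Bound radioactivity was collected by filtration and counted; IC50 from sigmoidal nonlinear regression.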
As usually defined, the Ki is the dissociation constant of the complex between target and ligand, obtained from inhibition or displacement. For `CC(C)CC(=O)N[C@@H](C)C(=O)N1CCC[C@H]1C(=O)N[C@@H](CCC(=O)O)C(=O)N[C@@H](CCCCNC(=O)COCCOCCNC(=O)COCCOCCNC(=O)CC[C@H](NC(=O)CCCCCCCCCCCCCCCCC(=O)O)C(=O)O)C(=O)N1CCC[C@H]1C(=O)N[C@@H](CCC(=O)O)C(=O)N[C@@H](CCC(=O)O)C(=O)N[C@@H](CC(=O)O)C(=O)N[C@@H](C)C(=O)N[C@@H](CO)C(=O)N1CCC[C@H]1C(=O)N[C@@H](CCC(=O)O)C(=O)N[C@@H](CCC(=O)O)C(=O)N[C@@H](CC(C)C)C(=O)N[C@@H](CCC(N)=O)C(=O)N[C@@H](CCCNC(=N)N)C(=O)N[C@@H](Cc1ccc(O)cc1)C(=O)N[C@@H](Cc1ccc(O)cc1)C(=O)N[C@H](C(=O)N[C@@H](CO)C(=O)N[C@@H](CC(C)C)C(=O)N[C@@H](CCCNC(=N)N)C(=O)N[C@@H](CCCCN)C(=O)N[C@@H](Cc1ccc(O)cc1)C(=O)N[C@@H](Cc1ccc(O)cc1)C(=O)N[C@@H](CC(N)=O)C(=O)N[C@@H](Cc1c[nH]c2ccccc12)C(=O)N[C@@H](CC(C)C)C(=O)N[C@H](C(=O)N[C@@H](CCCNC(=N)N)C(=O)N[C@@H](CCC(N)=O)C(=O)N[C@@H](CCCNC(=N)N)C(=O)N[C@@H](Cc1ccc(O)cc1)C(N)=O)[C@@H](C)O)C(C)C` [Compound 24, N{alpha-4}-(3-methylbutanoyl)-N{epsilon-7}-[2-(2-{2-[2-(2-{2-[(4S)-4-carboxy-4-(17-carboxyheptadecanamido)butanamido]ethoxy}ethoxy)acetamido]ethoxy}ethoxy)acetamido]-[4A,7K,9E,18Q,22V,26K,28Y,30W,31L]hPYY (4-36)], the Ki came to 2.22 nM.

With `CC(C)CC(=O)N[C@@H](C)C(=O)N1CCC[C@H]1C(=O)N[C@@H](CCC(=O)O)C(=O)N[C@@H](CCCCNC(=O)COCCOCCNC(=O)COCCOCCNC(=O)CC[C@H](NC(=O)CCCCCCCCCCCCCCCCC(=O)O)C(=O)O)C(=O)N1CCC[C@H]1C(=O)N[C@@H](CCC(=O)O)C(=O)N[C@@H](CCC(=O)O)C(=O)N[C@@H](CC(=O)O)C(=O)N[C@@H](C)C(=O)N[C@@H](CO)C(=O)N1CCC[C@H]1C(=O)N[C@@H](CCC(=O)O)C(=O)N[C@@H](CCC(=O)O)C(=O)N[C@@H](CC(C)C)C(=O)N[C@@H](CCC(N)=O)C(=O)N[C@@H](CCCNC(=N)N)C(=O)N[C@@H](Cc1ccc(O)cc1)C(=O)N[C@@H](CCC(N)=O)C(=O)N[C@H](C(=O)N[C@@H](CO)C(=O)N[C@@H](CC(C)C)C(=O)N[C@@H](CCCNC(=N)N)C(=O)N[C@@H](Cc1c[nH]cn1)C(=O)N[C@@H](Cc1ccc(O)cc1)C(=O)N[C@@H](Cc1ccc(O)cc1)C(=O)N[C@@H](CC(N)=O)C(=O)N[C@@H](Cc1c[nH]c2ccccc12)C(=O)N[C@@H](CC(C)C)C(=O)N[C@H](C(=O)N[C@@H](CCCNC(=N)N)C(=O)N[C@@H](CCC(N)=O)C(=O)N[C@@H](CCCNC(=N)N)C(=O)N[C@@H](Cc1ccc(O)cc1)C(N)=O)[C@@H](C)O)C(C)C` [Compound 165, N{alpha-4}-(3-methylbutanoyl)-N{epsilon-7}-[2-(2-{2-[2-(2-{2-[(4S)-4-carboxy-4-(17-carboxyheptadecanamido)butanamido]ethoxy}ethoxy)acetamido]ethoxy}ethoxy)acetamido]-[4A,7K,9E,18Q,21Q,22V,28Y,30W,31L]hPYY (4-36)], the Ki came out at 2.49 nM.

On to `CC(C)CC(=O)N[C@@H](C)C(=O)N1CCC[C@H]1C(=O)N[C@@H](CCC(=O)O)C(=O)N[C@@H](CCCCNC(=O)COCCOCCNC(=O)COCCOCCNC(=O)CC[C@H](NC(=O)CCCCCCCCCCCCCCCCC(=O)O)C(=O)O)C(=O)N1CCC[C@H]1C(=O)N[C@@H](CCC(=O)O)C(=O)N[C@@H](CCC(=O)O)C(=O)N[C@@H](CCC(=O)O)C(=O)N[C@@H](C)C(=O)N[C@@H](CO)C(=O)N1CCC[C@H]1C(=O)N[C@@H](CCC(=O)O)C(=O)N[C@@H](CCC(=O)O)C(=O)N[C@@H](CC(C)C)C(=O)N[C@@H](CCC(N)=O)C(=O)N[C@@H](CCC(N)=O)C(=O)N[C@@H](Cc1ccc(O)cc1)C(=O)N[C@@H](Cc1ccc(O)cc1)C(=O)N[C@H](C(=O)N[C@@H](CO)C(=O)N[C@@H](CC(C)C)C(=O)N[C@@H](CCCNC(=N)N)C(=O)N[C@@H](Cc1c[nH]cn1)C(=O)N[C@@H](Cc1ccc(O)cc1)C(=O)N[C@@H](Cc1ccc(O)cc1)C(=O)N[C@@H](CC(N)=O)C(=O)N[C@@H](Cc1c[nH]c2ccccc12)C(=O)N[C@@H](CC(C)C)C(=O)N[C@H](C(=O)N[C@@H](CCCNC(=N)N)C(=O)N[C@@H](CCC(N)=O)C(=O)N[C@@H](CCCNC(=N)N)C(=O)N[C@@H](Cc1ccc(O)cc1)C(N)=O)[C@@H](C)O)C(C)C` [Compound 243, N{alpha-4}-(3-methylbutanoyl)-N{epsilon-7}-[2-(2-{2-[2-(2-{2-[(4S)-4-carboxy-4-(17-carboxyheptadecanamido)butanamido]ethoxy}ethoxy)acetamido]ethoxy}ethoxy)acetamido]-[4A,7K,9E,11E,18Q,19Q,22V,28Y,30W,31L]hPYY (4-36)] (Isovaleryl-APEK([AEEA-AEEA-γGlu-C18 diacid])PEEEASPEELQQYYVSLRHYYNWLTRQRY-NH2), for which the inhibition constant Ki was 2.07 nM.

For `CC(C)CC(=O)N[C@@H](C)C(=O)N1CCC[C@H]1C(=O)N[C@@H](CCC(=O)O)C(=O)N[C@@H](CCCCNC(=O)COCCOCCNC(=O)COCCOCCNC(=O)CC[C@H](NC(=O)CCCCCCCCCCCCCCCCC(=O)O)C(=O)O)C(=O)N1CCC[C@H]1C(=O)N[C@@H](CCC(=O)O)C(=O)N[C@@H](CCC(=O)O)C(=O)N[C@@H](CC(=O)O)C(=O)N[C@@H](C)C(=O)N[C@@H](CO)C(=O)N1CCC[C@H]1C(=O)N[C@@H](CCC(=O)O)C(=O)N[C@@H](CCC(=O)O)C(=O)N[C@@H](CC(C)C)C(=O)N[C@@H](CCC(N)=O)C(=O)N[C@@H](CCCNC(=N)N)C(=O)N[C@@H](Cc1ccc(O)cc1)C(=O)N[C@@H](Cc1ccc(O)cc1)C(=O)N[C@H](C(=O)N[C@H](C(=O)N[C@@H](CC(C)C)C(=O)N[C@@H](CCCNC(=N)N)C(=O)N[C@@H](Cc1c[nH]cn1)C(=O)N[C@@H](Cc1ccc(O)cc1)C(=O)N[C@@H](Cc1ccc(O)cc1)C(=O)N[C@@H](CC(N)=O)C(=O)N[C@@H](Cc1c[nH]c2ccccc12)C(=O)N[C@@H](CC(C)C)C(=O)N[C@H](C(=O)N[C@@H](CCCNC(=N)N)C(=O)N[C@@H](CCC(N)=O)C(=O)N[C@@H](CCCNC(=N)N)C(=O)N[C@@H](Cc1ccc(O)cc1)C(N)=O)[C@@H](C)O)[C@@H](C)O)C(C)C` [Compound 102, N{alpha-4}-(3-methylbutanoyl)-N{epsilon-7}-[2-(2-{2-[2-(2-{2-[(4S)-4-carboxy-4-(17-carboxyheptadecanamido)butanamido]ethoxy}ethoxy)acetamido]ethoxy}ethoxy)acetamido]-[4A,7K,9E,18Q,22V,23T,28Y,30W,31L]hPYY (4-36)], the inhibition constant (Ki) was found to be 0.87 nM.
